Assay results reported in ChEMBL document CHEMBL4507288 (2021).
pKi: −log10 of the molar value. Activity calls are given as the source filed them.

Key:
[1] = target: Alpha-2C adrenergic receptor (Homo sapiens, UniProt P18825); assay: GPCRScan assay: inhibition of Alpha2C; set-up: radioligand conc. used [nm] 0.5 – 1.0, parental cells stable MDCK
[2] = target: Serine/threonine-protein kinase D2 (Homo sapiens) (UniProt Q9BZL6); conditions: Compound concentration 1000.0 nM
[3] = target: Casein kinase I isoform alpha-like (Homo sapiens) (UniProt Q8N752); conditions: Compound concentration 1000.0 nM
[4] = target: Serine/threonine-protein kinase ICK (Homo sapiens) (UniProt Q9UPZ9); conditions: Compound concentration 1000.0 nM
[5] = target: Ephrin type-A receptor 3 (Homo sapiens) (UniProt P29320); conditions: Compound concentration 1000.0 nM
[6] = target: Serine/threonine-protein kinase MRCK beta (Homo sapiens) (UniProt Q9Y5S2); conditions: Compound concentration 1000.0 nM
[7] = target: Cyclin-dependent kinase 19 (Homo sapiens) (UniProt Q9BWU1); conditions: Compound concentration 1000.0 nM
[8] = tested on: Epidermal growth factor receptor (Homo sapiens), P00533 [UNDEFINED MUTATION]; conditions: Compound concentration 1000.0 nM
[9] = target: Serine/threonine-protein kinase RIO3 (Homo sapiens) (UniProt O14730); conditions: Compound concentration 1000.0 nM
[10] = target: Amyloid-beta precursor protein (Homo sapiens, UniProt P05067); assay: Radioligand Binding Assay
[11] = target: Serine/threonine-protein kinase Nek3 (Homo sapiens) (UniProt P51956); conditions: Compound concentration 1000.0 nM
[12] = target: Ephrin type-B receptor 2 (Homo sapiens) (UniProt P29323); conditions: Compound concentration 1000.0 nM
[13] = target: Ribosomal protein S6 kinase alpha-3 (Homo sapiens) (UniProt P51812); conditions: Compound concentration 1000.0 nM
[14] = target: Calcium/calmodulin-dependent protein kinase type 1G (Homo sapiens) (UniProt Q96NX5); conditions: Compound concentration 1000.0 nM
[15] = target: Mitogen-activated protein kinase kinase kinase kinase 1 (Homo sapiens) (UniProt Q92918); conditions: Compound concentration 1000.0 nM
[16] = target: NUAK family SNF1-like kinase 2 (Homo sapiens) (UniProt Q9H093); conditions: Compound concentration 1000.0 nM
[17] = target: Dual specificity tyrosine-phosphorylation-regulated kinase 1B (Homo sapiens) (UniProt Q9Y463); conditions: Compound concentration 1000.0 nM
[18] = target: Serine/threonine-protein kinase 32B (Homo sapiens) (UniProt Q9NY57); conditions: Compound concentration 1000.0 nM
[19] = target: Tyrosine-protein kinase Fyn (Homo sapiens) (UniProt P06241); conditions: Compound concentration 1000.0 nM
[20] = target: Casein kinase II subunit alpha (Homo sapiens) (UniProt P68400); conditions: Compound concentration 1000.0 nM
[21] = target: Serine/threonine-protein kinase PAK 2 (Homo sapiens) (UniProt Q13177); conditions: Compound concentration 1000.0 nM
[22] = target: Protein kinase C epsilon type (Homo sapiens) (UniProt Q02156); conditions: Compound concentration 1000.0 nM
[23] = tested on: Tyrosine-protein kinase ABL1 (Homo sapiens), P00519 [Q252H]; conditions: Compound concentration 1000.0 nM
[24] = tested on: Tyrosine-protein kinase ABL1 (Homo sapiens), P00519 [F317L]; conditions: Compound concentration 1000.0 nM
[25] = target: Dual specificity protein kinase CLK2 (Homo sapiens) (UniProt P49760); conditions: Compound concentration 1000.0 nM
[26] = target: Mitogen-activated protein kinase 3 (Homo sapiens) (UniProt P27361); conditions: Compound concentration 1000.0 nM
[27] = tested on: Leucine-rich repeat serine/threonine-protein kinase 2 (Homo sapiens), Q5S007 [G2019S]; conditions: Compound concentration 1000.0 nM
[28] = target: Insulin-like growth factor 1 receptor (Homo sapiens) (UniProt P08069); conditions: Compound concentration 1000.0 nM
[29] = target: RAF proto-oncogene serine/threonine-protein kinase (Homo sapiens) (UniProt P04049); conditions: Compound concentration 1000.0 nM
[30] = tested on: Epidermal growth factor receptor (Homo sapiens), P00533 [G719C]; conditions: Compound concentration 1000.0 nM
[31] = target: Homeodomain-interacting protein kinase 1 (Homo sapiens) (UniProt Q86Z02); conditions: Compound concentration 1000.0 nM
[32] = target: Serine/threonine-protein kinase LATS1 (Homo sapiens) (UniProt O95835); conditions: Compound concentration 1000.0 nM
[33] = target: Platelet-derived growth factor receptor beta (Homo sapiens) (UniProt P09619); conditions: Compound concentration 1000.0 nM
[34] = target: Tyrosine-protein kinase SYK (Homo sapiens) (UniProt P43405); conditions: Compound concentration 1000.0 nM
[35] = target: Myosin-IIIb (Homo sapiens) (UniProt Q8WXR4); conditions: Compound concentration 1000.0 nM
[36] = target: Tyrosine-protein kinase JAK2 (Homo sapiens) (UniProt O60674); conditions: Compound concentration 1000.0 nM
[37] = target: Ephrin type-A receptor 7 (Homo sapiens) (UniProt Q15375); conditions: Compound concentration 1000.0 nM
[38] = target: Tyrosine-protein kinase ABL1 (Homo sapiens) (UniProt P00519); conditions: Compound concentration 1000.0 nM
[39] = target: Serine/threonine-protein kinase WNK4 (Homo sapiens) (UniProt Q96J92); conditions: Compound concentration 1000.0 nM
[40] = target: LIM domain kinase 1 (Homo sapiens) (UniProt P53667); conditions: Compound concentration 1000.0 nM
[41] = target: Ribosomal protein S6 kinase alpha-5 (Homo sapiens) (UniProt O75582); conditions: Compound concentration 1000.0 nM
[42] = target: Serine/threonine-protein kinase 33 (Homo sapiens) (UniProt Q9BYT3); conditions: Compound concentration 1000.0 nM
[43] = target: Focal adhesion kinase 1 (Homo sapiens) (UniProt Q05397); conditions: Compound concentration 1000.0 nM
[44] = target: Calcium-dependent protein kinase 1 (Plasmodium falciparum) (UniProt P62344); conditions: Compound concentration 1000.0 nM
[45] = target: SRSF protein kinase 2 (Homo sapiens) (UniProt P78362); conditions: Compound concentration 1000.0 nM
[46] = tested on: Proto-oncogene tyrosine-protein kinase receptor Ret (Homo sapiens), P07949 [M918T]; conditions: Compound concentration 1000.0 nM

Sequence of Ribosomal protein S6 kinase alpha-5 (Homo sapiens) (O75582 whole entry, looked up): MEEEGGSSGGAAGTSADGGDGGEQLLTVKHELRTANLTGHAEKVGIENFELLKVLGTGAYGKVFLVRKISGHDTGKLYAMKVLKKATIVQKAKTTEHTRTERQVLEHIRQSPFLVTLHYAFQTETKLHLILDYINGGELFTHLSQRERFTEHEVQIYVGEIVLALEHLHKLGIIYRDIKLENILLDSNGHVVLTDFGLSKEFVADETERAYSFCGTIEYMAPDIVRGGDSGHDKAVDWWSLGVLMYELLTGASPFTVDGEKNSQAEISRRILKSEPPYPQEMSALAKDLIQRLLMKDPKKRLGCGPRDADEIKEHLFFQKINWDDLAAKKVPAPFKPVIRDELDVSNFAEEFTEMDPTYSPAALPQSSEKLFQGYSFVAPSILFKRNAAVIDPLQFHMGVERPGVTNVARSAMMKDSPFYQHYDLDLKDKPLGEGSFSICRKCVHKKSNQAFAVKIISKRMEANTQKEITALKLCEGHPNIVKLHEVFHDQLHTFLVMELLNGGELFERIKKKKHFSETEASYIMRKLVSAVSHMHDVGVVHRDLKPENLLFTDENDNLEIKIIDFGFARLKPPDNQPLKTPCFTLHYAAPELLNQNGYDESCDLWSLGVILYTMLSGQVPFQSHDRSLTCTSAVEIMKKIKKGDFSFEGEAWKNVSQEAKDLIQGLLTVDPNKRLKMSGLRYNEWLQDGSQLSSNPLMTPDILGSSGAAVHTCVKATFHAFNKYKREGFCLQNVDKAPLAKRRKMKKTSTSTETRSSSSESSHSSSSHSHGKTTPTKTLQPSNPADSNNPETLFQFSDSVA
Sequence of Dual specificity tyrosine-phosphorylation-regulated kinase 1B (Homo sapiens) (Q9Y463 whole entry, looked up): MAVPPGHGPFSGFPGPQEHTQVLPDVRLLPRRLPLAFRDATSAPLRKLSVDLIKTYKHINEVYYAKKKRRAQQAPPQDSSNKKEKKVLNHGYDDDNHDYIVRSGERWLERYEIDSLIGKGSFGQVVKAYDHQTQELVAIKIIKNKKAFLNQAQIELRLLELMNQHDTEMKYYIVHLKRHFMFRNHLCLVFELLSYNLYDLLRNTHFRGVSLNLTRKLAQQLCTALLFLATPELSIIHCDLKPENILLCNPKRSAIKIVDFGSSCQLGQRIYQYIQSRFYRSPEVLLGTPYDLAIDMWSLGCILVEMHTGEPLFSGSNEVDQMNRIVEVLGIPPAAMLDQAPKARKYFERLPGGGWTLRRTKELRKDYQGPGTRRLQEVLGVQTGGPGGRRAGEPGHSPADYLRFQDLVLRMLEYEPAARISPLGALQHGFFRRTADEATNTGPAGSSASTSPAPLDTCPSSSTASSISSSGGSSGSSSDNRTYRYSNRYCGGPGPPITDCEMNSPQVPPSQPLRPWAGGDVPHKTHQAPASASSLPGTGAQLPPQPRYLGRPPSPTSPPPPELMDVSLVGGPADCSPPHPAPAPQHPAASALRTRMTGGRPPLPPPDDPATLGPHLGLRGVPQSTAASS
Sequence of Myosin-IIIb (Homo sapiens) (Q8WXR4 whole entry): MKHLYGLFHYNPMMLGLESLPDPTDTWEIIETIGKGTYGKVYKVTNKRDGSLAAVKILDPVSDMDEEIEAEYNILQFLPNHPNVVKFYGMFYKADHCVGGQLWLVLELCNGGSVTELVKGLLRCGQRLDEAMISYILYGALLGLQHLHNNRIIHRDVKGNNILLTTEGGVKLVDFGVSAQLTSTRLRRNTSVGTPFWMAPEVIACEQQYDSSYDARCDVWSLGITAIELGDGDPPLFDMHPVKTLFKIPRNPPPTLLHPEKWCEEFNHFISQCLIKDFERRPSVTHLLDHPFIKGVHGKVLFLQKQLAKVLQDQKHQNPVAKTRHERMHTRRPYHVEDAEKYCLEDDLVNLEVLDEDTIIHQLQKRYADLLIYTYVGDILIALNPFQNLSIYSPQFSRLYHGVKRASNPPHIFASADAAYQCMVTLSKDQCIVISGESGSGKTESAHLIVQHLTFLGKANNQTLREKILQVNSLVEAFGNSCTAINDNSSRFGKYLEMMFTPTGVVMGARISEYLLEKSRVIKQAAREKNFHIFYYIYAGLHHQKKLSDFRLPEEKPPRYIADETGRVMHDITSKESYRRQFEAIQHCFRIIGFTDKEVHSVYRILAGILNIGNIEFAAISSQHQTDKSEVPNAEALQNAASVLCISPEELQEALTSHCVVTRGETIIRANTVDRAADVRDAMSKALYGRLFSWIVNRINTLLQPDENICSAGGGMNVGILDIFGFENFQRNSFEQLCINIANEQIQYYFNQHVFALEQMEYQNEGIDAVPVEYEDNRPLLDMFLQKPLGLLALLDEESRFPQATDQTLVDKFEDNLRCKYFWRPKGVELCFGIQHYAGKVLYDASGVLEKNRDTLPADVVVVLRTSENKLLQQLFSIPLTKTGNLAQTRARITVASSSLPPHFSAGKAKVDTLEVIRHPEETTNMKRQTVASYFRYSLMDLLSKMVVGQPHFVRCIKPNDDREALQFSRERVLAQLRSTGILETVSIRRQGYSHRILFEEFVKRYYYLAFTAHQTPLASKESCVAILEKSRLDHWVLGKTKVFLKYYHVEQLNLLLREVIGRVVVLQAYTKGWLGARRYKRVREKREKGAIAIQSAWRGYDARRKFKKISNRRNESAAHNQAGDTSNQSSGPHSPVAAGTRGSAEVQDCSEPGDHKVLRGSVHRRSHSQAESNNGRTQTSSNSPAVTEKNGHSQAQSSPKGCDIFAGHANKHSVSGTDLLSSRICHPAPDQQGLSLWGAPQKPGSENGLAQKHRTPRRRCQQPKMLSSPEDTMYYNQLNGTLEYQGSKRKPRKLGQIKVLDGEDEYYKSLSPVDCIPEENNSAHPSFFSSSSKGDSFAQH
Sequence of Insulin-like growth factor 1 receptor (Homo sapiens) (P08069 31-736 limits assumed): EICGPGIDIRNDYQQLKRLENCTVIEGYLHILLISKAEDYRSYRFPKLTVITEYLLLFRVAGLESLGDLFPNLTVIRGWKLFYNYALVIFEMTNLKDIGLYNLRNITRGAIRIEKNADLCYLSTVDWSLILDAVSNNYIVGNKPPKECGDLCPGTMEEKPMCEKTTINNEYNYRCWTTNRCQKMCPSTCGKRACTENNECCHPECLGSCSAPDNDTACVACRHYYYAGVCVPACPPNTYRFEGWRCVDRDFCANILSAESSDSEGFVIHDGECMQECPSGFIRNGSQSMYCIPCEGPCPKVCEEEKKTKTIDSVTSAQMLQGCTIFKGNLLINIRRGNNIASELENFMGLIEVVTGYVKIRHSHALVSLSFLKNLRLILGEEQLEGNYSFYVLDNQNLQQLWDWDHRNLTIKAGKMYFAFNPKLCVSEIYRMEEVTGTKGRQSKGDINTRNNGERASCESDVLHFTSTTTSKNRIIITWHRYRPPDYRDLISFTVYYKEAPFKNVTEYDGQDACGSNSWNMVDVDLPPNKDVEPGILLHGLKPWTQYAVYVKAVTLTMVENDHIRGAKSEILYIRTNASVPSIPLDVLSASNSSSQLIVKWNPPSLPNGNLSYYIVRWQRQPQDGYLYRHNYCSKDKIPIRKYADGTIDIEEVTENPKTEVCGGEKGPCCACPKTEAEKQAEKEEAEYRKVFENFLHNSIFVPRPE
Sequence of Insulin-like growth factor 1 receptor (Homo sapiens) (P08069 741-1367 limits assumed): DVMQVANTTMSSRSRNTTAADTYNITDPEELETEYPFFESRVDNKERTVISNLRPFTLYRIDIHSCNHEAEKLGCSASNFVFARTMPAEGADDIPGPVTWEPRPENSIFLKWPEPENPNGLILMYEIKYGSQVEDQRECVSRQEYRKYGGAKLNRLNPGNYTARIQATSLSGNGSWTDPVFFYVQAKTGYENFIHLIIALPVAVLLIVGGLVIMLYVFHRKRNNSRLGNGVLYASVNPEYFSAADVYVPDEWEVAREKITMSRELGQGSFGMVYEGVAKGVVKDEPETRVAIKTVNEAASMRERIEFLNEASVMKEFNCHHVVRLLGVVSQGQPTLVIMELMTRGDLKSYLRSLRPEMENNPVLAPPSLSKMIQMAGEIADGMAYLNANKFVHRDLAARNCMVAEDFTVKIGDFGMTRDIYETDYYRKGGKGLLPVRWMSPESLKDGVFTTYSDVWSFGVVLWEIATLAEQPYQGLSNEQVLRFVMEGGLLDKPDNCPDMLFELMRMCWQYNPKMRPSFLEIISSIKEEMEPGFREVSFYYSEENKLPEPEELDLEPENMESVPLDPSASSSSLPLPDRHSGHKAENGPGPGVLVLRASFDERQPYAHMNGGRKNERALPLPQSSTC
Sequence of Dual specificity protein kinase CLK2 (Homo sapiens) (P49760 whole entry, looked up): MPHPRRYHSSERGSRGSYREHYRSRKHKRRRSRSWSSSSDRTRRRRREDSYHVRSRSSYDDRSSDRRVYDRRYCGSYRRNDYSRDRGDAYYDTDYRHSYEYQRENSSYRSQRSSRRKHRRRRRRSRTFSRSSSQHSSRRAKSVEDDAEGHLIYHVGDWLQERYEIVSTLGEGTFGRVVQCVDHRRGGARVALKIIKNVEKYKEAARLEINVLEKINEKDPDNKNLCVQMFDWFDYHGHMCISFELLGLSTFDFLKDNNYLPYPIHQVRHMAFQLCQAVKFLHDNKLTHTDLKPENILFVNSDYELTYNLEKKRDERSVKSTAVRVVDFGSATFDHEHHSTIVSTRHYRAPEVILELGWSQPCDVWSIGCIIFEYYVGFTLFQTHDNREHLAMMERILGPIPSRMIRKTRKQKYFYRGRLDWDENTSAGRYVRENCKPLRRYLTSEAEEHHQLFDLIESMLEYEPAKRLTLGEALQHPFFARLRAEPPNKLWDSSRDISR
Sequence of Serine/threonine-protein kinase 32B (Homo sapiens) (Q9NY57 whole entry): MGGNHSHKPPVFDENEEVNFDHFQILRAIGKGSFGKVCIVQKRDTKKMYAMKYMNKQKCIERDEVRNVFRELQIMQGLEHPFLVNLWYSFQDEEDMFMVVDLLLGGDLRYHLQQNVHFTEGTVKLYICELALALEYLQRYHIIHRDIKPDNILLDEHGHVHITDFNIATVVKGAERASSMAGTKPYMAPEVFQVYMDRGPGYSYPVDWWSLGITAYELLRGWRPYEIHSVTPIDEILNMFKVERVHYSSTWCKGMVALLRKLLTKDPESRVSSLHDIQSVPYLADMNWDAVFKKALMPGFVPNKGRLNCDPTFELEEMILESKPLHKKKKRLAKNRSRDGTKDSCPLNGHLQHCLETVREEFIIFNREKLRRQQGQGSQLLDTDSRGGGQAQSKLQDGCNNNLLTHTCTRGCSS

CC(C)(C)OC(=O)N1CCCC1CNC1CCC(c2cc(F)ccc2F)(S(=O)(=O)c2ccc(Cl)cc2)CC1 (stereo unspecified) [GSI-NC]
6.19: pKi [1]

O=S(=O)(NC1CCC(c2cc(F)ccc2F)(S(=O)(=O)c2ccc(Cl)cc2)CC1)C(F)(F)F (stereo unspecified) [MRK-560]
inactive: residual activity [2] 79% | residual activity [3] 100% | residual activity [4] 85% | residual activity [5] 100% | residual activity [6] 100% | residual activity [7] 100% | residual activity [8] 100% | residual activity [9] 83% | residual activity [11] 81% | residual activity [12] 100% | residual activity [13] 83% | residual activity [14] 100% | residual activity [15] 96% | residual activity [16] 100% | residual activity [17] 100% | residual activity [18] 100% | residual activity [19] 85% | residual activity [20] 85% | residual activity [21] 100% | residual activity [22] 52% | residual activity [23] 95% | residual activity [24] 90% | residual activity [25] 100% | residual activity [26] 100% | residual activity [27] 100% | residual activity [28] 100% | residual activity [29] 100% | residual activity [30] 100% | residual activity [31] 100% | residual activity [32] 100% | residual activity [33] 100% | residual activity [34] 89% | residual activity [35] 100% | residual activity [36] 83% | residual activity [37] 100% | residual activity [38] 88% | residual activity [39] 100% | residual activity [40] 86% | residual activity [41] 71% | residual activity [42] 76% | residual activity [43] 90% | residual activity [44] 100% | residual activity [45] 65% | residual activity [46] 92%
active: IC50 [10] 0.65 nM
